This assay has as its target T1, Recombinant human LTC4 synthase (Homo sapiens, UniProt Q16873).
T1 construct: made in house; host or cells: Pichia pastoris ('Piccia pastoralis' [sic])
T1 sequence (Q16873 1-150): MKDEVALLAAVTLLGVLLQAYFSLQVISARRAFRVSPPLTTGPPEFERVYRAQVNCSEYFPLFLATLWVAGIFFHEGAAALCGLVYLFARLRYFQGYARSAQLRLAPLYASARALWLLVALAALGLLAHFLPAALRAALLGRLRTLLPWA
The assay is described as follows: LTC4 synthase in vitro assay (e.g. by HTRF detection). In kind it is biochemical. As to the method:
In the assay, LTC4 synthase catalyses the reaction where the substrate LTA4 methyl ester is converted to the corresponding LTC4 methyl ester. Recombinant human LTC4 synthase is expressed in Piccia pastoralis and the purified enzyme is dissolved in 25 mM Tris-buffer pH 7.8 and stored at −80° C. The assay is performed in phosphate buffered saline (PBS) pH 7.4, supplemented with 5 mM glutathione (GSH). The reaction is terminated by addition of acetonitrile/MeOH/acetic acid (50/50/1). The assay is performed at rt in 96-well plates. Analysis of the formed LTC4 methyl ester is performed with reversed phase HPLC (Waters 2795 utilizing an Onyx Monolithic C18 column). The mobile phase consists of acetonitrile/MeOH/H2O (32.5/30/37.5) with 1% acetic acid pH adjusted with NH3 to pH 5.6, and absorbance measured at 280 nm with a Waters 2487 UV-detector.
The following is added chronologically to each well: • 1. 50 μl assay buffer, PBS with 5 mM GSH. • 2. 0.5 μl inhibitor in DMSO (final conc. 1 nM-10 μM). • 3. 2 μl LTC4 synthase in PBS. The total protein concentration in this solution is 0.025 mg/ml. Incubation of the plate at room temperature for 10 minutes. • 4. 1-1.5 μl LTA4 methyl ester (final conc. 10 μM). Incubation of the plate at rt for 1 min. • 5. 50 μl stop solution.
80 μl of the incubation mixture is analysed with HPLC.
Alternatively, HTRF detection can be used:
In the assay, LTC4 synthase catalyses the reaction where the substrate LTA4 is converted to LTC4. Recombinant human LTC4 synthase is expressed in Piccia pastoralis and the purified enzyme is dissolved in 25 mM tris-buffer pH 7.8 supplemented with 0.1 mM glutathione (GSH) and stored at −80° C. The assay is performed in phosphate buffered saline (PBS) pH 7.4 and 5 mM GSH in 384-well plates.
The following is added chronologically to each well:
1.48 μL LTC4 synthase in PBS with 5 mM GSH. The total protein concentration in this solution is 0.5 μg/mL.
2. 1 μL inhibitor in DMSO (final concentration 1 nM to 10 μM).
3. Incubation of the plate at room temperature for 10 min.
4. 1 μL LTA4 (final concentration 2.5 μM).
5. Incubation of the plate at room temperature for 5 min.
6. 10 μL of the incubation mixture is analysed using homogenous time resolved fluorescent (HTRF) detection.
A general note: TR-FRET usually uses a lanthanide donor and a delayed reading to cut background.
By IC50 is commonly meant the midpoint of a concentration-inhibition curve. With `CCCCOc1ccc(S(=O)(=O)Nc2ccc(Oc3ccc(Nc4ccc(F)c(F)c4)cc3C(=O)O)cc2C(=O)O)cc1` [Example 3, 2-(4-Butoxy-benzene-sulfonylamino)-5-[2-carboxy-4-(3,4-difluoro-phenylamino)-phenoxy]-benzoic acid], the IC50 came out at 1020 nM.

Take `O=C(O)c1cc(Nc2ccc(F)c(F)c2)ccc1Oc1ccc(Nc2ccc(F)c(F)c2)cc1` [Example 2, 5-(3,4-Difluoro-phenylamino)-2-[4-(3,4-difluoro-phenylamino)-phenoxy]-benzoic acid]: the IC50 amounted to 1900 nM.

For the compound `CCCCOc1ccc(S(=O)(=O)Nc2ccc(Oc3ccc(Nc4ccc(F)c(F)c4)cc3C(=O)O)cc2)cc1` [Example 1, 2-[4-(4-Butoxy-benzene-sulfonylamino)-phenoxy]-5-(3,4-difluoro-phenyl-amino)-benzoic acid], the IC50 turned out to be 243 nM.

Consider `O=C(O)c1cc(Oc2ccc(Nc3ccc(F)c(F)c3)cc2C(=O)O)ccc1Nc1ccc(F)c(F)c1` [Example 4], for which the IC50 amounted to 2030 nM.
